4 compounds from ChEMBL document CHEMBL3525932, “Comparison of metabolism of sesamin and episesamin by drug-metabolizing enzymes in human liver” (Drug Metab Dispos, 2012) can be followed below.

A word on the Km: it is the concentration of substrate that gives half-maximal velocity. Broadly, the Vmax is the rate approached at saturating substrate.

Data set [1] addresses T1, Cytochrome P450 2C19 (Homo sapiens, UniProt P33261). The data set can be described thus: Activity of recombinant human CYP2C19 expressed in Saccharomyces cerevisiae AH22 cells assessed as enzyme-mediated compound formation treated with sesamin at 2 to 20 uM after 15 mins by HPLC analysis in presence of NADPH. The format is ADME, cell-based. Particulars: ah22, 0.25 h.
Data set [2] deals with T2, Cytochrome P450 1A2 (Homo sapiens, UniProt P05177).
T2 sequence (P05177 whole entry): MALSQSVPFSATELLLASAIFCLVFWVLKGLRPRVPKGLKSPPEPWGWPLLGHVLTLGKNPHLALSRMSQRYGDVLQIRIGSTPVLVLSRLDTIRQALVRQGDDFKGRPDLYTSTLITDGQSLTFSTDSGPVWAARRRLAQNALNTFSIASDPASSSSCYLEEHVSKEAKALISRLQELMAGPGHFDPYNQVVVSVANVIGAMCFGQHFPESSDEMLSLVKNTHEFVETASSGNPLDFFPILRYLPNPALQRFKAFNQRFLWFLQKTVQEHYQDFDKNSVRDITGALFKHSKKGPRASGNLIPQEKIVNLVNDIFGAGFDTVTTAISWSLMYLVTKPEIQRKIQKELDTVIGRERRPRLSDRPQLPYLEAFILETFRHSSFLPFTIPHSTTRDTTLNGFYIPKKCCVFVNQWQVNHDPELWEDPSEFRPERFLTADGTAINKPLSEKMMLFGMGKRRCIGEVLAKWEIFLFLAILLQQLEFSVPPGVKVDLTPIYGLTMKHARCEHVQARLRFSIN
The data set can be described thus: Activity of recombinant human CYP1A2 expressed in Saccharomyces cerevisiae AH22 cells assessed as enzyme-mediated compound formation treated with (R)-episesamin monocatechol at 1 to 30 uM after 15 mins by HPLC analysis in presence of NADPH. Particulars: ah22, 0.25 h. The format is ADME, cell-based.

In data set [3] the target is T3, Cytochrome P450 2C9 (Homo sapiens, UniProt P11712). The data set can be described thus: Activity of recombinant human CYP2C9 expressed in Saccharomyces cerevisiae AH22 cells assessed as enzyme-mediated compound formation treated with (S)-episesamin monocatechol at 1 to 30 uM after 15 mins by HPLC analysis in presence of NADPH. The format is ADME, cell-based. Particulars: ah22, 0.25 h.

In data set [4] the target is T3, Cytochrome P450 2C9. The data set can be described thus: Activity of recombinant human CYP2C9 expressed in Saccharomyces cerevisiae AH22 cells assessed as enzyme-mediated compound formation treated with (R)-episesamin monocatechol at 1 to 30 uM after 15 mins by HPLC analysis in presence of NADPH. The format is ADME, cell-based. To be noted: ah22, 0.25 h.
Data set [5] has as its target T2, Cytochrome P450 1A2. The data set is described as follows: Activity of recombinant human CYP1A2 expressed in Saccharomyces cerevisiae AH22 cells assessed as enzyme-mediated compound formation treated with (S)-episesamin monocatechol at 1 to 30 uM after 15 mins by HPLC analysis in presence of NADPH. The format is ADME, cell-based. Particulars: ah22, 0.25 h.
In data set [6] the target is T1, Cytochrome P450 2C19. The data set is described as follows: Activity of recombinant human CYP2C19 expressed in Saccharomyces cerevisiae AH22 cells assessed as enzyme-mediated compound formation treated with episesamin at 2 to 75 uM after 15 mins by HPLC analysis in presence of NADPH. The format is ADME, cell-based. Particulars: ah22, 0.25 h.
In data set [7] the test system is UGT. The data set can be described thus: Drug metabolism in human liver microsomes assessed as UGT-mediated glucuronidation after 10 to 30 mins by HPLC analysis in presence of UDP-GlcUA. In kind it is ADME. (Microsomes from liver hold many membrane-bound enzymes, among them those of drug oxidation.)
Data set [8] has as its system UGT. The data set is described as follows: Drug metabolism in Sprague-Dawley rat liver microsomes assessed as UGT-mediated glucuronidation after 10 to 30 mins by HPLC analysis in presence of UDP-GlcUA. In kind it is ADME.
Data set [9] has as its system CYP450. The data set is described as follows: Drug metabolism in Sprague-Dawley rat liver microsomes assessed as CYP450-mediated catecholization after 10 to 30 mins by HPLC analysis in presence of NADPH. The format is ADME.
Data set [10] can be described thus: Drug metabolism in Sprague-Dawley rat liver microsomes assessed as CYP450-mediated catecholization per mg of protein after 10 to 30 mins by HPLC analysis in presence of NADPH. In kind it is ADME.
The nature of data set [11]: Drug metabolism in human liver microsomes assessed as CYP450-mediated catecholization per mg of protein after 10 to 30 mins by HPLC analysis in presence of NADPH. The format is ADME.
Data set [12] in a line: Drug metabolism in Sprague-Dawley rat liver microsomes assessed as UGT-mediated glucuronidation per mg of protein after 10 to 30 mins by HPLC analysis in presence of UDP-GlcUA. In kind it is ADME.
For data set [13], the system named is Liver microsome. The data set can be described thus: Drug level in human liver microsomes treated with episesamin at 2 to 75 uM after 15 mins by HPLC analysis in presence of NADPH. In kind it is ADME. To be noted: 0.25 h.
Data set [14] concerns the target T1, Cytochrome P450 2C19. The data set is described as follows: Activity of recombinant human CYP2C19 expressed in Saccharomyces cerevisiae AH22 cells assessed as enzyme-mediated episesamin dicatechol formation after 15 mins by HPLC analysis in presence of NADPH. The format is ADME, cell-based. Particulars: ah22, 0.25 h.
Data set [15] deals with T2, Cytochrome P450 1A2. The data set is described as follows: Activity of recombinant human CYP1A2 expressed in Saccharomyces cerevisiae AH22 cells assessed as enzyme-mediated episesamin dicatechol formation after 15 mins by HPLC analysis in presence of NADPH. In kind it is ADME, cell-based. To be noted: ah22, 0.25 h.
Data set [16] can be described thus: Drug metabolism in human liver microsomes assessed as UGT-mediated glucuronidation per mg of protein after 10 to 30 mins by HPLC analysis in presence of UDP-GlcUA. In kind it is ADME.
Data set [17] relates to CYP450. The data set is described as follows: Drug metabolism in human liver microsomes assessed as CYP450-mediated catecholization after 10 to 30 mins by HPLC analysis in presence of NADPH. The format is ADME.
Data set [18] deals with T4, UDP-glucuronosyltransferase 2B7 (Homo sapiens, UniProt P16662).
T4 sequence (P16662 whole entry): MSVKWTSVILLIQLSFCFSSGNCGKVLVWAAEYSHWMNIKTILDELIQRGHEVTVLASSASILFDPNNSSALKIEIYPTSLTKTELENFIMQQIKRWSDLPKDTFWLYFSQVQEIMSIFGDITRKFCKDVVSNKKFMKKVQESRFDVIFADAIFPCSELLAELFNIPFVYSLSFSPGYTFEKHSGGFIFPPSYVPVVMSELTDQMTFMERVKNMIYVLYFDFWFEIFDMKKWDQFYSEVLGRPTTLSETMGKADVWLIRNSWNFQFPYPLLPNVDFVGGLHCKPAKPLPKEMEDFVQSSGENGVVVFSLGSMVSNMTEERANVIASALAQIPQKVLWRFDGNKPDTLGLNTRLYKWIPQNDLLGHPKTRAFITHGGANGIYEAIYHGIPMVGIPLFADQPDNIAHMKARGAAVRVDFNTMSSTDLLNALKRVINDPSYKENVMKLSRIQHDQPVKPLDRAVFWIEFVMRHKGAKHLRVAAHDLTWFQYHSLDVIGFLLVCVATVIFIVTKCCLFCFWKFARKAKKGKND
The data set can be described thus: Activity of recombinant human UGT2B7 expressed in baculovirus infected insect cells assessed as enzyme-mediated glucuronidation at 1 to 30 uM after 10 to 30 mins by HPLC analysis in presence of UDP-GlcUA. In kind it is ADME.

The target of data set [19] is T3, Cytochrome P450 2C9. The data set can be described thus: Activity of recombinant human CYP2C9 expressed in Saccharomyces cerevisiae AH22 cells assessed as enzyme-mediated episesamin dicatechol formation after 15 mins by HPLC analysis in presence of NADPH. The format is ADME, cell-based. To be noted: ah22, 0.25 h.
In data set [20] the test system is Liver microsome. The data set is described as follows: Drug level in human liver microsomes treated with episesamin at 5 uM after 30 mins by HPLC analysis in presence of NADPH. The format is ADME. Particulars: 0.5 h.
In data set [21] the target is T2, Cytochrome P450 1A2. The data set can be described thus: Activity of recombinant human CYP1A2 expressed in Saccharomyces cerevisiae AH22 cells assessed as enzyme-mediated compound formation treated with episesamin at 2 to 75 uM after 15 mins by HPLC analysis in presence of NADPH. The format is ADME, cell-based. Particulars: ah22, 0.25 h.
Data set [22] deals with T3, Cytochrome P450 2C9. The data set is described as follows: Activity of recombinant human CYP2C9 expressed in Saccharomyces cerevisiae AH22 cells assessed as enzyme-mediated compound formation treated with episesamin at 2 to 75 uM after 15 mins by HPLC analysis in presence of NADPH. To be noted: ah22, 0.25 h. In kind it is ADME, cell-based.

T3 sequence (P11712 whole entry): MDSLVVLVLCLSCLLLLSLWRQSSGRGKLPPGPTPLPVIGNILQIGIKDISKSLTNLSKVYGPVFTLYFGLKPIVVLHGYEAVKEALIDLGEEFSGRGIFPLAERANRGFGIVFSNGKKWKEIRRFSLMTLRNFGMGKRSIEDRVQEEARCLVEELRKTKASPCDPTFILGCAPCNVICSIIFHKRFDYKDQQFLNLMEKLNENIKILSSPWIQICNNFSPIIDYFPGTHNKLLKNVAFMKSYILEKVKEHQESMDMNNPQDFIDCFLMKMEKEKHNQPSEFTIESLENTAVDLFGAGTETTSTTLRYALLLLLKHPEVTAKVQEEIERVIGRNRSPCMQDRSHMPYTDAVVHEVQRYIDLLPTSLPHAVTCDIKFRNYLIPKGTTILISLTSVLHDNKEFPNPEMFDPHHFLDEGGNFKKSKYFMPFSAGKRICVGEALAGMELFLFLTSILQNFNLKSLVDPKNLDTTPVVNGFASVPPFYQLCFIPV
T1 sequence (P33261 whole entry): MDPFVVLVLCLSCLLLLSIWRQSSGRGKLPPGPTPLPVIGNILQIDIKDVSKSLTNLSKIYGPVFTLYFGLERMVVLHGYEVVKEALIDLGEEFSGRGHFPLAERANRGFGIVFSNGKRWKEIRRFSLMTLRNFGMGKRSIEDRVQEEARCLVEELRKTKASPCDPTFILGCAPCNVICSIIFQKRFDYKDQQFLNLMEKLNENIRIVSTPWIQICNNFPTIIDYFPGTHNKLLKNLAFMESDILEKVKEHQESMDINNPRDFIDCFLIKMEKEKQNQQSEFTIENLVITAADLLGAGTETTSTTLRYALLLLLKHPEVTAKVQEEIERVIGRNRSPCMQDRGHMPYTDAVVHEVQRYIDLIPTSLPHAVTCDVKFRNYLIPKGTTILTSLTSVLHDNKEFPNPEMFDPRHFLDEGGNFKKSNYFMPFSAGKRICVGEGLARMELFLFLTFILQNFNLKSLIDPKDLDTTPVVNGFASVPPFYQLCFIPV

`Oc1ccc([C@H]2OC[C@H]3[C@@H]2CO[C@@H]3c2ccc(O)c(O)c2)cc1O`: the Drug metabolism result on Cytochrome P450 2C19 [1] is “metabolite_detected”.

As for `Oc1ccc([C@H]2OC[C@H]3[C@@H]2CO[C@H]3c2ccc(O)c(O)c2)cc1O`, the Drug metabolism result at Cytochrome P450 1A2 [2], on Cytochrome P450 2C9 [3], on Cytochrome P450 2C9 [4], on Cytochrome P450 1A2 [5] and at Cytochrome P450 2C19 [6] was “metabolite_detected” throughout.

Regarding `Oc1ccc([C@H]2OC[C@H]3[C@@H]2CO[C@H]3c2ccc3c(c2)OCO3)cc1O`, the Km in the data set with UGT [7] is 9.9 µM; with UGT [8] it was 16.8 µM; with CYP450 [9] it was 2.9 µM; with CYP450 [17] it was 4.1 µM. Further, the Vmax in data set [10] was 1.9 nmol/min/mg; in data set [11], 0.28 nmol/min/mg; in data set [12] it was 4.4 nmol/min/mg; in data set [16] it was 0.55 nmol/min/mg. Moreover, the Drug metabolism result is recorded as “metabolite_detected” with Liver microsome [13]; 9.4 nmol/min on Cytochrome P450 2C19 [14]; 0.38 nmol/min on Cytochrome P450 1A2 [15]; “metabolite_detected” on Cytochrome P450 2C19 [6]; “metabolite_detected” in data set [18]; 0.19 nmol/min at Cytochrome P450 2C9 [19]. Besides, the Drug metabolism entry with Liver microsome [20] is “metabolite_detected”.

Consider `Oc1ccc([C@@H]2OC[C@H]3[C@@H]2CO[C@@H]3c2ccc3c(c2)OCO3)cc1O`, for which the Km in the data set with UGT [7] stood at 8.6 µM; with UGT [8] it was 9.9 µM; with CYP450 [9] it was 8.7 µM; with CYP450 [17], 1.8 µM. For the same compound, the Vmax in [11] amounted to 0.15 nmol/min/mg; in [12], 0.55 nmol/min/mg; in [16], 0.68 nmol/min/mg. Further, the Drug metabolism result is given as “metabolite_detected” with Liver microsome [13]; 9.4 nmol/min at Cytochrome P450 2C19 [14]; 0.38 nmol/min on Cytochrome P450 1A2 [15]; “metabolite_detected” on Cytochrome P450 1A2 [21]; “metabolite_detected” on Cytochrome P450 2C19 [6]; “metabolite_detected” in [18]. Moreover, the Drug metabolism entry at Cytochrome P450 2C9 [22] is recorded as “metabolite_detected”; on Cytochrome P450 2C9 [19], 0.19 nmol/min; in the data set with Liver microsome [20], “metabolite_detected”.
